Test results taken from patent publication US10591487B2, “Small molecule detection and localization method based on MALDI imaging mass spectrometry” (INDUSTRY-ACADEMIC COOPERATION FOUNDATION, YONSEI UNIVERSITY, priority 2015, dated 2020).

Key:
CD31 = test: Expression level of CD31 by immunohistochemical analysis of cancer cell; assay type: in vivo, mice; conditions: cancer tissue after dosing voacangine or sunitinib; FIGS. 14 and 15
Description: Immunohistochemical analysis was performed to find an effect of voacangine against pathological angiogenesis of a cancer cell.
CD31 or Platelet Endothelial Cell Adhesion Molecule-1 (PECAM-1) are known as being expressed on the surface of a hematoblast such as platelet and naive T cell, natural killer cell, granulocyte, monocyte and cell-to-cell junction of endothelial as transmembrane glycoprotein of 130 kDa type belonging to immunoglobulin super-family.

[1] = system: capsaicin-induced contraction; conditions: isolated mouse rectum; J. Nat. Med. 65 (2011) 157-165; cited from earlier work
[2] = Voacangine distribution in tumors, livers and kidneys by MALDI imaging mass spectrometry; assay type: in vivo, mice; conditions: four hours after treating voacangine, FIG. 5
Excerpt: After surgically removing tumors, livers, and kidneys from mouse models after four hours after treating voacangine in Embodiment 3, a specimen was manufactured to perform MALDI mass spectrometry and immunofluorescence with H&E straining and the result was shown in FIG. 5.

HIF-1α = test: Expression level of HIF-1α; conditions: earlier finding of the inventors
[3] = system: Human Umbilical Vascular Endothelial Cell (HUVEC); test: In vitro and in vivo angiogenesis inhibition (cell-based HUVEC screening); conditions: nontoxic dose, earlier finding of the inventors
Excerpt: The inventors screened 300 crude extracts which are taken from a natural plant that is effective in proliferating Human Umbilical Vascular Endothelial Cell (HUVEC) by using a cell-based screening technique.

U87MG = test: Variation of cancer size in U87MG cancer-diseased animal model; conditions: U87MG xenograft mice; voacangine 10 mg/kg i.p. every day for 12 days; compared with vehicle and sunitinib 40 mg/kg p.o.; FIG. 4
Description: A cell strain U87MG, which is a kind of human glioglastoma multiforme purchased from American Type Culture Collection (ATCC), was cultivated in a medium to which Phosphate-Buffered Saline (PBS): Matrigel (1:1) is added.
The cultivated cell strain U87MG of 5×10^6 was merged with PBS:Matrigel (1:1) of 100 μl and the mixture was injected into athymic nude mice for two weeks to induce growth of a cancer cell.

VEGF = test: Expression level of VEGF, target gene of HIF-1α; conditions: earlier finding of the inventors

SMILES	CD31 expression (CD31)	capsaicin-induced contraction [1]	localization of voacangine in livers, kidneys and cancer cells [2]	expression level of HIF-1α (HIF-1α)	angiogenesis inhibition [3]	cancer size after dosage (U87MG)	expression level of VEGF (VEGF)
CCN(CC)CCNC(=O)c1c(C)[nH]c(/C=C2\C(=O)Nc3ccc(F)cc32)c1C [sunitinib, Sunitinib malate, reference compound]	greatly reduced in expression	–	–	–	–	–	–
CC[C@H]1C[C@@H]2C[N@]3CCc4c([nH]c5ccc(OC)cc45)[C@](C(=O)OC)(C2)C13 [voacangine]	greatly reduced in expression	dose-dependently inhibiting	more concentrated in the cancer cells than the livers and kidneys	dose-dependently inhibited	inhibiting in vitro and in vivo angiogenesis by a nontoxic dose	greatly reduced	dose-dependently inhibited
